Measured values taken from the supplement of paper PMC10307832.

Legend:
Assay in all cases: relative viability (nuclei count vs DMSO), 5 days (fraction); higher = more cells survive
[1] = compound: CO[C@H]1C[C@@H]2CC[C@@H](C)[C@@](O)(O2)C(=O)C(=O)N2CCCC[C@H]2C(=O)O[C@H]([C@H](C)C[C@@H]2CC[C@@H](OCCO)[C@H](OC)C2)CC(=O)[C@H](C)/C=C(\C)[C@@H](O)[C@@H](OC)C(=O)[C@H](C)C[C@H](C)/C=C/C=C/C=C/1C [Everolimus] + CC(=O)Nc1cccc(-n2c(=O)n(C3CC3)c(=O)c3c(Nc4ccc(I)cc4F)n(C)c(=O)c(C)c32)c1 [Trametinib] (partner 0.02 µM)
Procedure, shortened: (§1)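 After 5 days of treatment, lung cancer cells in 1536-well plates were fixed and stained in a single step (final 0.05% Triton X-100, 1% formaldehyde, 1 ug/ml Hoechst) and their nuclei counted on 4× images. Treatment had been applied by pin tool the day after seeding as one drug alone or as a fixed anchor-drug dose with five library-drug doses (not always all listed) in √10 steps. Relative viability is the nuclei count of treated wells divided by that of vehicle wells, and values are medians of duplicate plates.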

[2] = compound: CO[C@H]1C[C@@H]2CC[C@@H](C)[C@@](O)(O2)C(=O)C(=O)N2CCCC[C@H]2C(=O)O[C@H]([C@H](C)C[C@@H]2CC[C@@H](OCCO)[C@H](OC)C2)CC(=O)[C@H](C)/C=C(\C)[C@@H](O)[C@@H](OC)C(=O)[C@H](C)C[C@H](C)/C=C/C=C/C=C/1C [Everolimus] + COc1cccc2cc(-c3nc([C@H]4CC[C@H](C(=O)O)CC4)n4ncnc(N)c34)[nH]c12 [OSI-027] (partner 0.5 µM)
Procedure, shortened: as §1

[3] = compound: CO[C@H]1C[C@@H]2CC[C@@H](C)[C@@](O)(O2)C(=O)C(=O)N2CCCC[C@H]2C(=O)O[C@H]([C@H](C)C[C@@H]2CC[C@@H](OCCO)[C@H](OC)C2)CC(=O)[C@H](C)/C=C(\C)[C@@H](O)[C@@H](OC)C(=O)[C@H](C)C[C@H](C)/C=C/C=C/C=C/1C [Everolimus] + CS(=O)(=O)CCNCc1ccc(-c2ccc3ncnc(Nc4ccc(OCc5cccc(F)c5)c(Cl)c4)c3c2)o1 [Lapatinib] (partner 2 µM)
Procedure, shortened: as §1

[4] = compound: CO[C@H]1C[C@@H]2CC[C@@H](C)[C@@](O)(O2)C(=O)C(=O)N2CCCC[C@H]2C(=O)O[C@H]([C@H](C)C[C@@H]2CC[C@@H](OCCO)[C@H](OC)C2)CC(=O)[C@H](C)/C=C(\C)[C@@H](O)[C@@H](OC)C(=O)[C@H](C)C[C@H](C)/C=C/C=C/C=C/1C [Everolimus] + C[C@]1(O)C[C@@H](c2nc(-c3ccc4ccc(-c5ccccc5)nc4c3)c3c(N)nccn32)C1 [Linsitinib] (partner 1 µM)
Procedure, shortened: as §1

Cell Line	relative viability ([1]; first compound 0.01 µM)	relative viability ([1]; first compound 0.03162 µM)	relative viability ([1]; first compound 0.1 µM)	relative viability ([1]; first compound 0.3162 µM)	relative viability ([1]; first compound 1 µM)	relative viability ([2]; first compound 0.01 µM)	relative viability ([2]; first compound 0.03162 µM)	relative viability ([2]; first compound 0.1 µM)	relative viability ([2]; first compound 0.3162 µM)	relative viability ([2]; first compound 1 µM)	relative viability ([3]; first compound 0.01 µM)	relative viability ([3]; first compound 0.03162 µM)	relative viability ([3]; first compound 0.1 µM)	relative viability ([3]; first compound 0.3162 µM)	relative viability ([3]; first compound 1 µM)	relative viability ([4]; first compound 0.01 µM)	relative viability ([4]; first compound 0.03162 µM)	relative viability ([4]; first compound 0.1 µM)	relative viability ([4]; first compound 0.3162 µM)	relative viability ([4]; first compound 1 µM)
201T	0.658	0.632	0.586	0.595	0.57	0.574	0.549	0.519	0.499	0.509	0.911	1	0.852	0.882	0.938	0.805	0.876	0.78	0.78	0.823
A549	–	–	–	–	–	–	–	–	–	–	0.682	0.5	0.444	0.485	0.444	0.484	0.308	0.231	0.241	0.223
A-427	0.472	0.482	0.472	0.556	0.574	0.449	0.457	0.333	0.398	0.432	0.811	0.902	0.645	0.768	0.85	0.854	0.772	0.823	0.675	0.834
ABC-1	–	–	–	–	–	0.342	0.281	0.279	0.357	0.316	0.925	1.13	0.751	0.816	0.873	0.599	0.351	0.55	0.446	0.535
BEN	0.494	0.447	0.467	0.484	0.46	0.247	0.292	0.272	0.253	0.239	0.366	0.302	0.28	0.34	0.377	0.571	0.355	0.338	0.334	0.326
CAL-12T	0.193	0.187	0.172	0.191	0.191	0.221	0.299	0.25	0.309	0.296	0.483	0.426	0.33	0.463	0.433	0.452	0.56	0.447	0.616	0.562
COR-L23	0.37	0.337	0.316	0.375	0.294	0.334	0.352	0.374	0.419	0.367	0.744	0.829	0.804	1.01	0.918	0.552	0.501	0.603	0.708	0.652
COR-L 105	0.424	0.389	0.378	0.455	0.424	0.43	0.418	0.366	0.457	0.445	0.351	0.288	0.316	0.38	0.262	0.743	0.604	0.585	0.686	0.504
Calu-6	–	–	–	–	–	–	–	–	–	–	0.987	1.02	0.907	0.927	0.994	0.647	0.707	0.663	0.762	0.778
ChaGo-K-1	0.647	0.795	0.729	0.751	0.796	0.467	0.445	0.443	0.504	0.495	–	–	–	–	–	–	–	–	–	–
EBC-1	–	–	–	–	–	–	–	–	–	–	0.23	0.218	0.208	0.184	0.25	0.263	0.218	0.306	0.205	0.298
EKVX	–	0.294	0.257	0.268	0.382	0.518	0.427	0.289	0.358	0.43	0.158	0.161	0.159	0.171	0.161	0.863	0.728	0.63	0.402	0.568
EMC-BAC-2	0.502	0.605	0.536	–	0.503	0.288	0.275	0.274	0.307	0.283	0.675	0.563	0.49	0.571	0.517	0.587	0.542	0.532	0.517	0.501
EPLC-272H	0.199	0.227	0.179	0.205	0.204	0.206	0.204	0.203	0.24	0.253	0.615	0.73	0.543	0.605	0.587	1.15	0.786	0.64	0.619	0.657
H3255	0.414	0.391	0.351	0.433	0.403	0.531	0.426	0.381	0.402	0.339	0.249	0.238	0.266	0.212	0.225	0.804	0.695	0.559	0.602	0.504
HARA	0.425	0.394	0.346	0.559	0.339	0.277	0.345	–	0.282	0.336	0.546	0.468	0.541	0.714	0.526	0.839	0.8	0.646	0.674	0.713
HCC-15	0.35	0.344	0.334	0.282	0.32	0.502	0.517	0.447	0.543	0.546	0.899	0.899	0.881	0.981	0.871	0.787	0.777	0.692	0.739	0.653

Cell Line	relative viability ([1]; first compound 0.01 µM)	relative viability ([1]; first compound 0.03162 µM)	relative viability ([1]; first compound 0.1 µM)	relative viability ([1]; first compound 0.3162 µM)	relative viability ([1]; first compound 1 µM)	relative viability ([2]; first compound 0.01 µM)	relative viability ([2]; first compound 0.03162 µM)	relative viability ([2]; first compound 0.1 µM)	relative viability ([2]; first compound 0.3162 µM)	relative viability ([2]; first compound 1 µM)	relative viability ([3]; first compound 0.01 µM)	relative viability ([3]; first compound 0.03162 µM)	relative viability ([3]; first compound 0.1 µM)	relative viability ([3]; first compound 0.3162 µM)	relative viability ([3]; first compound 1 µM)	relative viability ([4]; first compound 0.01 µM)	relative viability ([4]; first compound 0.03162 µM)	relative viability ([4]; first compound 0.1 µM)	relative viability ([4]; first compound 0.3162 µM)	relative viability ([4]; first compound 1 µM)
HCC-44	1.13	1.08	0.982	1.04	0.901	0.382	0.438	0.434	0.384	0.548	1.01	1.11	1.12	1.01	0.938	0.467	0.545	0.313	0.349	0.411
HCC-78	0.637	0.56	0.493	0.529	0.47	0.348	0.332	0.572	0.311	0.347	0.633	1.28	0.521	0.36	0.534	0.482	0.319	0.272	0.28	0.293
HCC-366	0.258	0.245	0.257	0.227	0.225	0.755	0.614	0.49	0.727	0.5	0.89	1.11	0.994	0.992	0.589	0.338	0.372	0.274	0.291	0.343
HCC-827	0.494	0.314	0.311	0.31	0.295	0.624	0.613	0.596	0.482	0.47	0.191	0.13	0.163	0.204	0.153	1.01	0.977	0.979	1	0.838
IA-LM	–	–	–	–	–	–	–	–	–	–	0.718	0.395	0.377	0.272	0.432	0.296	0.306	0.243	0.267	0.282
LCLC-103H	0.605	0.659	0.661	0.601	0.591	0.347	0.385	0.402	0.367	0.366	–	–	–	–	–	1.04	0.905	0.864	0.831	0.747
NCI-H441	0.373	0.306	0.327	0.357	0.29	0.557	0.479	0.474	0.585	0.358	–	–	–	–	–	0.504	0.302	0.289	0.402	0.401
NCI-H522	0.634	0.55	0.527	0.456	0.635	0.658	0.501	0.617	0.621	0.591	–	–	–	–	–	–	–	–	–	–
NCI-H1299	–	–	–	–	–	–	–	–	–	–	0.975	1.06	0.974	0.994	1	0.855	1	0.544	0.848	0.819
NCI-H1563	–	–	–	–	–	0.628	0.645	0.622	0.693	0.643	0.785	0.839	0.758	0.769	0.817	0.993	0.757	0.766	0.683	0.734
NCI-H1648	0.388	0.435	0.395	0.307	0.325	0.247	0.252	0.268	0.281	0.257	–	–	–	–	–	–	–	–	–	–
NCI-H1650	0.48	0.489	0.437	0.481	0.58	0.489	0.444	0.468	0.484	0.574	0.615	0.707	0.645	0.742	0.489	–	–	–	–	–
NCI-H1703	–	–	–	–	–	–	–	–	–	–	0.569	0.481	0.548	0.489	0.847	0.293	0.281	0.447	0.488	0.463
NCI-H2170	0.316	0.248	0.266	0.252	0.279	0.464	0.338	0.481	0.422	0.421	0.214	0.242	0.228	0.222	0.247	–	–	–	–	–
NCI-H2342	0.649	0.54	0.482	0.468	0.583	0.501	0.456	0.431	0.515	0.547	–	–	–	–	–	–	–	–	–	–
SW 900	0.604	0.733	0.536	0.717	0.432	0.317	0.273	0.25	0.35	0.244	–	–	–	–	–	–	–	–	–	–
